Experimental data published in article PMC7726319, “Discovery of 5,5′-Methylenedi-2,3-Cresotic Acid as a Potent Inhibitor of the Chemotactic Activity of the HMGB1·CXCL12 Heterocomplex Using Virtual Screening and NMR Validation” (Frontiers in Chemistry, 2020).

Biological target: T1, HMGB1 (Mus musculus, UniProt P63158)
T1 construct: 6His-tagged form for MST
T1 sequence (P63158 2-215): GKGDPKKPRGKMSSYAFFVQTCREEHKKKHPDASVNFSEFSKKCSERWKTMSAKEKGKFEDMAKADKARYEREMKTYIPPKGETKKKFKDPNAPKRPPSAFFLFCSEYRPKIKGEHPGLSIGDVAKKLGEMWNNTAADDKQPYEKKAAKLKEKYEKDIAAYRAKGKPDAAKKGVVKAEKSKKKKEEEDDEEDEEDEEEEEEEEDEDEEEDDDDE
Test: 1H-15N HSQC NMR titration (CSP fit)
Assay type: binding
Settings: read-out: apparent Kd

Kd: > 10 mM
Structure (SMILES): O=C(/C=C/c1ccc(O)c(O)c1)O[C@H](Cc1ccc(O)c(O)c1)C(=O)O [compound 6, rosmarinic acid]
